Data set [1] deals with Staphylococcus aureus. Briefly: Antibacterial activity against quinolone-sensitive Staphylococcus aureus MS5935.
Data set [2] relates to Staphylococcus aureus. As to the kind of experiment: Antibacterial activity against quinolone-resistant Staphylococcus aureus MS5935. It is filed as functional.
In data set [3] the test system is Staphylococcus aureus. As to the kind of experiment: Ratio of MIC for quinolone-resistant Staphylococcus aureus MS5935 to MIC for quinolone-sensitive Staphylococcus aureus. It is filed as functional.
The subject of data set [4] is Staphylococcus aureus. Briefly: Antibacterial activity against Staphylococcus aureus. The format is functional.
Data set [5] relates to Streptococcus pneumoniae. As to the kind of experiment: Antibacterial activity against Streptococcus pneumoniae. The format is functional.
A further data set concerns Enterococcus faecium. As to the kind of experiment: Antibacterial activity against VanA-type vancomycin-resistant Enterococcus faecium A2373. It is filed as functional. The following applies: Enterococcus faecium, A2373; read-out: MIC.
Data set [6] deals with Staphylococcus aureus. Briefly: Antibacterial activity against Staphylococcus aureus Smith. The following applies: Staphylococcus aureus, Smith; read-out: MIC. It is filed as functional.
Data set [7] has as its system Streptococcus pneumoniae. As to the kind of experiment: Antibacterial activity against Streptococcus pneumoniae IID554. The format is functional. The following applies: Streptococcus pneumoniae, IID554; read-out: MIC.
Data set [8] can be described thus: Half life in C57BL/6 mouse at 1 mg/kg, iv and 2 mg/kg, po. The following applies: in vivo. It is filed as ADME, organism-based.
Data set [9] deals with T1, Voltage-gated inwardly rectifying potassium channel KCNH2 (Homo sapiens, UniProt Q12809). Briefly: Inhibition of human ERG expressed in CHO cells measured over 5 mins by patch clamp assay. (Patch clamp records ionic current or voltage across a cell membrane.)
T1 sequence (Q12809 whole entry): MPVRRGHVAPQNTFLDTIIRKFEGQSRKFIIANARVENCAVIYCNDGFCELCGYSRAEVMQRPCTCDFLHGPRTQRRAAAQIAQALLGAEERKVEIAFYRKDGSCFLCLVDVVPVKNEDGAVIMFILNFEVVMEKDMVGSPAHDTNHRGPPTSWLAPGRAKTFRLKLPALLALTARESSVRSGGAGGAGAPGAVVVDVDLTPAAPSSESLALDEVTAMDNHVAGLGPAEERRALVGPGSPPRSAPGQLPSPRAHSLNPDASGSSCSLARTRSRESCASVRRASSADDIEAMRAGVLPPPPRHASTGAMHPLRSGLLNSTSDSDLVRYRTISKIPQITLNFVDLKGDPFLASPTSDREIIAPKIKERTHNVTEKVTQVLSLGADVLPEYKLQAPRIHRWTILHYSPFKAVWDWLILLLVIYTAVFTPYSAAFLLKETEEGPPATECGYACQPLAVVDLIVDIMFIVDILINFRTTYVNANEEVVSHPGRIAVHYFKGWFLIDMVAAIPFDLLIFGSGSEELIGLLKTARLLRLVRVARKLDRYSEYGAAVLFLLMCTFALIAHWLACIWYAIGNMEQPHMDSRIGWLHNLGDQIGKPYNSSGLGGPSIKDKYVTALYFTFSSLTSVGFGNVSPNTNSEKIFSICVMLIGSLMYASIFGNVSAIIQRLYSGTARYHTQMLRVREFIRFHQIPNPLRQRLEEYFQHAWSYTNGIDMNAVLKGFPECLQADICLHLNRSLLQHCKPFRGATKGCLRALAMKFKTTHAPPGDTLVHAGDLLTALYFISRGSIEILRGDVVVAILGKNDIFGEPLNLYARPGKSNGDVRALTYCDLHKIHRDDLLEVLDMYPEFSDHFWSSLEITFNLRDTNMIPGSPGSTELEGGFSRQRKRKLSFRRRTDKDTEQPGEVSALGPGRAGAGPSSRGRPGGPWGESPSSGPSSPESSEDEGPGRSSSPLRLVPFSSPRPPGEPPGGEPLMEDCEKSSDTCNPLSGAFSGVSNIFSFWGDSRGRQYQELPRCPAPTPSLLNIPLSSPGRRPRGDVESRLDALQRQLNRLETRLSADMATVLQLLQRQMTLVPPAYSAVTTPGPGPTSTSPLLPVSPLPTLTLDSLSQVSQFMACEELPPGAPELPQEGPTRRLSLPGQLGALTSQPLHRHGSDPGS
For another data set, the system named is Escherichia coli. As to the kind of experiment: Antibacterial activity against Escherichia coli ATCC 25922. The format is functional. The following applies: Escherichia coli, ATCC 25922; read-out: MIC.
Data set [10] is described as follows: Oral bioavailability in C57BL/6 mouse at 2 mg/kg. It is filed as ADME, organism-based. The following applies: in vivo.
Data set [11] in a line: Plasma clearance in C57BL/6 mouse at 1 mg/kg, iv and 2 mg/kg, po. It is filed as ADME, organism-based.
The nature of data set [12]: Volume of distribution at steady state in C57BL/6 mouse at 1 mg/kg, iv and 2 mg/kg, po. The format is ADME, organism-based. The following applies: in vivo, read-out: Vdss.
In the next data set the test system is Acinetobacter baumannii. Briefly: Antibacterial activity against Acinetobacter baumannii IID876. The format is functional. The following applies: Acinetobacter baumannii, IID876; read-out: MIC.
In the next data set the test system is Mus musculus. Briefly: Dose normalized AUC in C57BL/6 mouse at 1 mg/kg, iv and 2 mg/kg, po. The format is ADME, organism-based. The following applies: in vivo.
For data set [13], the system named is Staphylococcus aureus. Briefly: Antibacterial activity against Staphylococcus aureus Smith infected in po dosed CD1 mouse administered at 0.5 hrs post infection. It is filed as functional.
The target of data set [14] is T1, Voltage-gated inwardly rectifying potassium channel KCNH2. Briefly: Displacement of MK499 from human ERG.
Another data set concerns Pseudomonas aeruginosa. Briefly: Antibacterial activity against Pseudomonas aeruginosa PAO1. The following applies: Pseudomonas aeruginosa, PAO1; read-out: MIC. The format is functional.
In another data set the test system is Enterococcus faecalis. As to the kind of experiment: Antibacterial activity against Enterococcus faecalis ATCC 29212. The following applies: Enterococcus faecalis, ATCC 29212; read-out: MIC. The format is functional.
For data set [15], the system named is Staphylococcus aureus. As to the kind of experiment: Antibacterial activity against Staphylococcus aureus Smith infected in iv dosed CD1 mouse administered at 0.5 hrs post infection. The format is functional.
Data set [16] concerns Staphylococcus aureus. As to the kind of experiment: Antibacterial activity against Staphylococcus aureus Smith infected in po dosed ICR mouse assessed as survival rate administered at 1 hr post infection measured over 7 days. The format is functional.
Data set [17] relates to Staphylococcus aureus. As to the kind of experiment: Antibacterial activity against Staphylococcus aureus Smith infected in iv dosed ICR mouse assessed as survival rate administered at 1 hr post infection measured over 7 days. It is filed as functional.

Data on four compounds can be found in ChEMBL document CHEMBL3425423, “Hydroxy tricyclic 1,5-naphthyridinone oxabicyclooctane-linked novel bacterial topoisomerase inhibitors as broad-spectrum antibacterial agents-SAR of RHS moiety (Part-3)” (Bioorg Med Chem Lett, 2015).

Broadly, the MIC is the lowest concentration that inhibits growth of the organism. As a reminder, the MIC90 is the lowest concentration that inhibits either 90% of growth or 90% of the strains tested, depending on the study. Read a low MIC90 as greater potency. As a reminder, the half-life is the time in which the quantity being followed falls by half. Higher therefore signals slow decline. Usually IC50 stands for the concentration needed to halve the response being measured. A higher IC50 goes with weaker potency in that assay. Broadly, the bioavailability is dose-corrected exposure relative to a reference, in per cent. Lower therefore signals poor availability. Broadly, the ED50 is the dose at which the effect has come halfway, by size or by number of responders.

Each structure is given as a SMILES string. Converted amounts (≈) assume the structure as drawn.

`C[C@H]1COc2c(N3CCN(C)CC3)c(F)cc3c(=O)c(C(=O)O)cn1c23.C[C@H]1COc2c(N3CCN(C)CC3)c(F)cc3c(=O)c(C(=O)O)cn1c23.O` [LEVOFLOXACIN]: the minimal inhibitory concentration (MIC) in the data set on Staphylococcus aureus [1] is 0.25 µg/mL; in the data set on Staphylococcus aureus [2], > 16 µg/mL. Besides, in the data set with Staphylococcus aureus [3], the Ratio is given as >64.
Regarding `O=c1ccc2ncc(=O)n3c2n1C[C@H]3CN1CCC(NCc2cc3c(cn2)OCCC3)CC1` [GEPOTIDACIN], the MIC90 in the data set with Staphylococcus aureus [4] was 0.5 µg/mL (≈ 1.11 µM); against Streptococcus pneumoniae [5] it was 0.25 µg/mL (≈ 0.557 µM).
For `O=C1COc2cc(F)c(CNC34CCC(C[C@]5(O)Cn6c(=O)ccc7ncc(F)c5c76)(CC3)OC4)nc2N1`, the MIC turned out to be 16 µg/mL (≈ 30.4 µM) with Enterococcus faecium; 0.5 µg/mL (≈ 0.951 µM) with Staphylococcus aureus [6]; 2 µg/mL (≈ 3.81 µM) in the data set with Streptococcus pneumoniae [7]; 8 µg/mL (≈ 15.2 µM) in the data set with Escherichia coli; 8 µg/mL (≈ 15.2 µM) in the data set on Acinetobacter baumannii; 16 µg/mL (≈ 30.4 µM) in the data set with Pseudomonas aeruginosa. The MIC in the data set on Enterococcus faecalis came out at 4 µg/mL (≈ 7.61 µM). This compound also gave a half-life in data set [8] of 1.7 h. Also, the values for the IC50 in data set [9] and in data set [14] were 333 µM and > 60 µM, respectively. In [10], this compound returned a bioavailability of 39%. This compound also returned a clearance in data set [11] of 15 mL/min/kg. The Vd in [12] amounted to 1.3 L/kg. This compound displayed an AUC/dose in the data set with Mus musculus of 2.1 µM·h/mg/kg. In addition, the ED90 in the data set with Staphylococcus aureus [13] was 15 mg/kg; in the data set with Staphylococcus aureus [15], 12 mg/kg. Besides, the Ratio with Staphylococcus aureus [3] is <4.
On to `O=c1ccc2ncc(F)c3c2n1C[C@@]3(O)CC12CCC(NCc3cc4c(cn3)OCCO4)(CC1)CO2`, for which the MIC in the data set on Enterococcus faecium came out at 16 µg/mL (≈ 32.4 µM); in the data set with Staphylococcus aureus [6] it was 0.5 µg/mL (≈ 1.01 µM); in the data set with Streptococcus pneumoniae [7], 2 µg/mL (≈ 4.04 µM); in the data set on Escherichia coli, 16 µg/mL (≈ 32.4 µM); in the data set with Acinetobacter baumannii, 8 µg/mL (≈ 16.2 µM); with Pseudomonas aeruginosa, 16 µg/mL (≈ 32.4 µM). The MIC in the data set with Enterococcus faecalis was determined as 8 µg/mL (≈ 16.2 µM). For the same compound, the half-life in data set [8] is 2 h. This compound displayed a bioavailability in data set [10] of 60%. The compound further displayed a clearance in data set [11] of 47 mL/min/kg. Further, the Vd in data set [12] worked out at 17 L/kg. For the same compound, the AUC/dose with Mus musculus is 0.5 µM·h/mg/kg. In addition, the median effective dose (ED50) stood at 5.1 mg/kg in the data set with Staphylococcus aureus [16] and 11 mg/kg in the data set with Staphylococcus aureus [17]. Also, the ED90 in the data set on Staphylococcus aureus [15] is 12 mg/kg.
